Results taken from patent US20250221979A1, “NOVEL HETEROCYCLIC COMPOUND” (SHOUYAO HOLDINGS (BEIJING) CO., LTD., priority 2022, published 2025).

Biological target: human MAT2A enzyme (Homo sapiens (Human), UniProt P31153)
Assay: In vitro enzymatic inhibition activity assay on MAT2A (PiColorLock phosphate detection)
Format: biochemical
Settings: purified human MAT2A 10 nM, ATP 50 μM, L-methionine 100 μM, 6 h at 23° C.; read-out: MAT2A inhibitory activity IC50
Description: Enzymatic activity assays of compounds of this patent against MAT2A (to detect half inhibitory concentration IC50 values of the compounds) were performed using the phosphate detection kit PiColorLockTM (ab270004, purchased from Abcam). This method utilized the principle that purified human MAT2A enzyme catalyzes the formation of S-adenosylmethionine (SAM) from L-methionine and ATP to release free phosphate, and used the spectrophotometric method to quantify phosphate, so as to determine the enzymatic activity of MAT2A. Compounds were diluted in a 10-fold gradient starting at 1 mM with 100% DMSO (for a total of 8 concentrations) and 2 μL of each concentration was added to 48 μL of reaction buffer (50 mM Tris-HCl PH 7.5, 50 mM KCl, 10 mM MgCl2, 0.01% Brij-35, 0.01% BSA, 1 mM DTT) and mixed well. The final diluted compound was prepared, and 5 μL of MAT2A enzyme (final concentration of 10 nM), 5 μL of ATP (final concentration of 50 μM), and 5 μL of L-methionine (final concentration of 100 μM) were added to each well of a 384-well plate (#3701, purchased from CORNING). After the 384-well plate was placed in the incubator at 23° C. for 6 h, 5 μL of PiColorLock reagent diluted Accelerator (dilution ratio 1:100) was added to each well, and the reaction was stopped by incubating in the incubator at 23° C. for 5 min. 2 μL of Stabiliser was added, the absorbance was read at 630 nm on BMG CLARIOstar, and the IC50 value of the compound was calculated by using GraphPad Prism software.
Under the conditions of this experiment, the inhibition of MAT2A by test compounds can be expressed as an IC50 value for the inhibition of the level of phosphate production during the enzymatic reaction.

Chain of human MAT2A enzyme (P31153 whole entry): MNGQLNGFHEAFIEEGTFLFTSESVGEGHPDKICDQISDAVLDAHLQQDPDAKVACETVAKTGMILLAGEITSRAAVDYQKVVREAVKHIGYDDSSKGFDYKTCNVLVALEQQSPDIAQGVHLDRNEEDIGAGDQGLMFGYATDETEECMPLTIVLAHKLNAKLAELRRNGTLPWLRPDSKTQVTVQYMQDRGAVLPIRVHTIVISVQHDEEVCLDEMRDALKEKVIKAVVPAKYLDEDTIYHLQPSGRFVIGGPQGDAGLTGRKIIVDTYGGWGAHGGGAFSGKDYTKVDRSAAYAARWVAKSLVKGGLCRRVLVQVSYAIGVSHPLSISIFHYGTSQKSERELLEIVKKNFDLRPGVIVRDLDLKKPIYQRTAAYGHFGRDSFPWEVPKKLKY

Compound	IC50 [nM]
COC(=O)c1c(N)c2ccc(C(C)(F)F)cc2n(-c2ccc([C@@H](C)O)cc2)c1=O [Example 358, methyl 4-amino-7-(1,1-difluoroethyl)-1-(4-((1R)-1-hydroxyethyl)phenyl)-2-oxo-1,2-dihydroquinoline-3-carboxylate]	1.36
COC(=O)c1c(N)c2ccc(C(F)(F)F)cc2n(-c2ccc3occc3c2)c1=O [Example 196, methyl 4-amino-1-(6-benzofuran-5-yl)-2-oxo-7-(trifluoromethyl)-1,2-dihydro quinoline-3-carboxylate]	0.81
COC(=O)c1c(N)c2ccc(C(F)(F)F)cc2n(-c2cn[nH]c2)c1=O [Example 159, methyl 4-amino-2-oxo-1-(1H-pyrazol-4-yl)-7-(trifluoromethyl)-1,2-dihydroquinoline-3-carboxylate]	2.87
COC(=O)c1c(N)c2ccc(Br)nc2n(-c2ccc(Cl)nc2)c1=O [Example 297, methyl 4-amino-7-bromo-1-(6-chloropyridin-3-yl)-2-oxo-1,2-dihydro-1,8-naphthyridine-3-carboxylate]	2.04
C#Cc1ccc(-n2c(=O)c(C(=O)OC)c(N)c3ccc(C(F)(F)F)cc32)cc1 [Example 133, methyl 4-amino-1-(4-ethynylphenyl)-2-oxo-7-(trifluoromethyl)-1,2-dihydroquinoline-3-carboxylate]	2.79
COC(=O)c1c(N)c2ccc(I)cc2n(-c2ccccc2)c1=O [Example 16, methyl 4-amino-7-iodo-2-oxo-1-phenyl-1,2-dihydroquinoline-3—carboxylate]	1.23
COC(=O)c1c(N)c2ccc(C(F)(F)F)cc2n(-c2ccc(N)nc2)c1=O [Example 182, methyl 4-amino-1-(6-aminopyridin-3-yl)-2-oxo-7-(trifluoromethyl)-1,2-dihydroquinoline-3-carboxylate]	1.16
[2H]C([2H])([2H])OC(=O)c1c(N)c2ccc(OC(F)(F)F)cc2n(-c2ccc(N)cc2)c1=O [Example 391, methyl-d3 4-amino-1-(4-aminophenyl)-2-oxo-7-(trifluoromethoxy)-1,2-dihydroquinoline-3-carboxylate]	1.31
COC(=O)c1c(N)c2ccc(I)cc2n(-c2ccccc2Cl)c1=O [Example 20, methyl 4-amino-7-iodo-1-(2-chlorophenyl)-2-oxo-1,2-dihydroquinoline-3-carboxylate]	5.98
COC(=O)c1c(N)c2ccc(Br)cc2n(-c2ccc(C(C)O)nc2)c1=O (stereo not drawn) [Example 291, methyl 4-amino-1-(6-(1-hydroxyethyl)pyridin-3-yl)-2-oxo-7-bromo-1,2-dihydroquinoline-3-carboxylate]	2.18
COC(=O)c1c(N)c2ccc(C3CC3)cc2n(-c2ccc([C@@H](C)O)cc2)c1=O [Example 353, methyl 4-amino-(1-(4-(1R)-1-hydroxyethyl)phenyl)-7-cyclopropyl-2-oxo-1,2-dihydroquinoline-3-carboxylate]	1.25
COC(=O)c1c(N)c2ccc(C3CC3)cc2n(-c2ccccc2)c1=O [Example 66, methyl 4-amino-7-cyclopropyl-2-oxo-1-phenyl-1,2-dihydroquinoline-3-carboxylate]	6.76
COC(=O)c1c(N)c2ccc(C)cc2n(-c2cccc3cnccc23)c1=O [Example 205, methyl 4-amino-1-(isoquinolin-5-yl)-7-methyl-2-oxo-1,2-dihydroquinoline-3-carboxylate]	4.47
COC(=O)c1c(N)c2ccc(OC(C)C)nc2n(-c2ccc(Cl)cc2)c1=O [Example 388, methyl 4-amino-1-(4-chlorophenyl)-7-isopropoxy-2-oxo-1,2-dihydro-1,8-naphthyridine-3-carboxylate]	1.55
COC(=O)c1c(N)c2ccc(Br)cc2n(-c2ccc(Cl)cc2)c1=O [Example 91, methyl 4-amino-7-bromo-1-(4-chlorophenyl)-2-oxo-1,2-dihydroquinoline-3-carboxylate]	0.93
CCc1ccccc1-n1c(=O)c(C(=O)OC)c(N)c2ccc(C(F)(F)F)cc21 [Example 145, methyl 4-amino-1-(2-ethylphenyl)-2-oxo-7-(trifluoromethyl)-1,2-dihydroquinoline-3-carboxylate]	4.6
COC(=O)c1c(N)c2ccc(Br)nc2n(-c2ccc(C(C)O)nc2)c1=O (stereo not drawn) [Example 332, methyl 4-amino-7-bromo-1-(6-(1-hydroxyethyl)pyridin-3-yl)-2-oxo-1,2-dihydro-1,8-naphthyridine-3-carboxylate]	2.28

Compound	IC50 [nM]
COC(=O)c1c(N)c2ccc(C)cc2n(-c2ccc(C(C)O)cc2)c1=O (stereo not drawn) [Example 329, methyl 4-amino-1-(4-(1-hydroxyethyl)phenyl)-2-oxo-7-methyl-1,2-dihydroquinoline-3-carboxylate]	2.65
COC(=O)c1c(N)c2ccc(Br)cc2n(-c2cccc3c(Cl)nccc23)c1=O [Example 216, methyl 4-amino-1-(1-chloroisoquinolin-5-yl)-7-bromo-2-oxo-1,2-dihydroquinoline-3-carboxylate]	2.34
COC(=O)c1c(N)c2ccc(C(F)(F)F)cc2n(-c2ccc3nc[nH]c3c2)c1=O [Example 76, methyl 4-amino-1-(3H-benzo[d]imidazol-5-yl)-2-oxo-7-(trifluoromethyl)-1,2-dihydroquinoline-3-carboxylate]	1.71
COC(=O)c1c(N)c2ccc(Br)cc2n(-c2ccc(OC(F)F)cc2)c1=O [Example 83, methyl 4-amino-7-bromo-1-(4-((difluoromethyl)oxy)phenyl)-2-oxo-1,2-dihydroquinoline-3-carboxylate]	1.21
COC(=O)c1c(N)c2ccc(Br)nc2n(-c2ccc(N)cc2)c1=O [Example 263, methyl 4-amino-1-(4-aminophenyl)-7-bromo-2-oxo-1,2-dihydro-1,8-naphthyridine-3-carboxylate]	1.41
[2H]C([2H])([2H])OC(=O)c1c(N)c2ccc(C(F)(F)F)nc2n(-c2ccc(C(C)O)cc2)c1=O (stereo not drawn) [Example 310, methyl-d3 4-amino-1-(4-(1-hydroxyethyl)phenyl)-2-oxo-7-(trifluoromethyl)-1,2-dihydro-1,8-naphthyridine-3-carboxylate]	0.74
COC(=O)c1c(N)c2ccc(Br)nc2n(-c2ccc(N)cc2C)c1=O [Example 304, methyl 4-amino-1-(4-amino-2-methylphenyl)-7-bromo-2-oxo-1,2-dihydro-1,8-naphthyridine-3-carboxylate]	2.28
COC(=O)c1c(N)c2ccc(Br)cc2n(-c2ccc(N)cc2F)c1=O [Example 259, methyl 4-amino-1-(4-amino-2-fluorophenyl)-7-bromo-2-oxo-1,2-dihydro quinoline-3-carboxylate]	1.08
COC(=O)c1c(N)c2ccc(Br)cc2n(-c2ccc(Br)cc2)c1=O [Example 107, methyl 4-amino-7-bromo-1-(4-bromophenyl)-2-oxo-1,2-dihydroquinoline-3-carboxylate]	1.52
COC(=O)c1c(N)c2ccc(C(F)(F)F)cc2n(-c2ccc3ocnc3c2)c1=O [Example 128, methyl 4-amino-1-(benzo(2,1-d)(1,3)oxazol-5-yl)-2-oxo-7-(trifluoromethyl)-1,2-dihydroquinoline-3-carboxylate]	3.49
COC(=O)c1c(N)c2ccc(Br)nc2n(-c2ccc(Cl)cc2C)c1=O [Example 287, methyl 4-amino-7-bromo-1-(4-chloro-2-methylphenyl)-2-oxo-1,2-dihydro-1,8-naphthyridine-3-carboxylate]	1.45
COC(=O)c1c(N)c2ccc(C(F)(F)F)cc2n(-c2ccc3ccncc3c2)c1=O [Example 224, methyl 4-amino-1-(isoquinolin-7-yl)-2-oxo-7-(trifluoromethyl)-1,2-dihydroquinoline-3-carboxylate]	2.81
COC(=O)c1c(N)c2ccc(C(F)(F)F)nc2n(-c2ccc(N)nc2C)c1=O [Example 308, methyl 4-amino-1-(6-amino-2-methylpyridin-3-yl)-2-oxo-7-(trifluoromethyl)-1,2-dihydro-1,8-naphthyridine-3-carboxylate]	2.42
COC(=O)c1c(N)c2ccc(Br)cc2n(-c2ccc(OC)nc2)c1=O [Example 211, methyl 4-amino-7-bromo-1-(6-methoxypyridin-3-yl)-2-oxo-1,2-dihydroquinoline-3-carboxylate]	1.84
COC(=O)c1c(N)c2ccc(C(F)(F)F)cc2n(-c2cccc(CO)c2)c1=O [Example 21, methyl 4-amino-1-(3-(hydroxymethyl)phenyl)-2-oxo-7-(trifluoromethyl)-1,2-dihydroquinoline-3-carboxylate]	6.58
COC(=O)c1c(N)c2ccc(I)cc2n(-c2ccc(OC)cc2)c1=O [Example 79, methyl 4-amino-7-iodo-1-(4-methoxyphenyl)-2-oxo-1,2-dihydroquinoline-3-carboxylate]	0.61
